Laboratory results as given in a compilation of properties of binary mixtures (doi:10.1007/s10953-015-0325-1).

Test: xn = mol fraction of the nth substance listed
Settings: 100 kPa

CCCN + CCCCCCCC[n+]1ccn(C)c1.F[P-](F)(F)(F)(F)F
speed of sound [m/s]
Settings	x1 = 0.0976	x1 = 0.218	x1 = 0.263	x1 = 0.3677	x1 = 0.4676	x1 = 0.5629	x1 = 0.6971	x1 = 0.7972	x1 = 0.9087	x1 = 1
293.15 K	1408	1392.4	1388.7	1375.5	1363.8	–	1327.2	1296.3	1260.5	–
298.15 K	1393.2	1378.7	1375	–	–	1335.9	–	–	1244	1213.9
303.15 K	1381.2	1362.6	1358.9	1344.5	1332.1	1316.2	–	1260.7	–	–
308.15 K	1368.6	1348.2	–	1330.1	1314.1	1299.6	1270.5	1239.1	–	1164.9
313.15 K	–	1333.4	–	1312.1	1295.8	1278.5	–	1218.2	1177.2	1140.4

CCCN + CCCCCC[n+]1ccn(C)c1.F[P-](F)(F)(F)(F)F
x1 = 1
Settings	speed of sound [m/s]
293.15 K	1238.3
303.15 K	1189.5
308.15 K	1164.9
313.15 K	1140.4

CCCN + CCCC[n+]1ccn(C)c1.F[P-](F)(F)(F)(F)F
speed of sound [m/s]
Settings	x1 = 0.0684	x1 = 0.155	x1 = 0.2613	x1 = 0.3519	x1 = 0.4366	x1 = 0.5956	x1 = 0.69	x1 = 0.79	x1 = 0.9026	x1 = 1
293.15 K	1444.7	1429.8	1407.5	–	1371.3	–	1315	1288.8	–	–
298.15 K	–	1419.3	1395	–	1355.3	1320.6	–	1269.5	1235.5	–
303.15 K	–	–	1380.5	–	1338	–	1277.6	1247.8	–	1189.5
308.15 K	1412.4	–	1365.2	1341	1319.8	1280.4	1257	1225.2	1189.2	1164.9
313.15 K	1399.6	1380.1	1348.8	1324.5	1300	–	–	1202.5	1165.5	1140.4

CCCCCCCC[n+]1ccn(C)c1.F[P-](F)(F)(F)(F)F + CCCN
x2 = 0
Settings	speed of sound [m/s]
293.15 K	1421.2
298.15 K	1406.4
308.15 K	1378.8
313.15 K	1365.7

CCCCCC[n+]1ccn(C)c1.F[P-](F)(F)(F)(F)F + CCCN
speed of sound [m/s]
Settings	x2 = 0	x2 = 0.0873	x2 = 0.1718	x2 = 0.2686	x2 = 0.3426	x2 = 0.4606	x2 = 0.5627	x2 = 0.6597	x2 = 0.7913	x2 = 0.902
293.15 K	1436.9	–	1411	1396.5	1385.5	1365.7	1347.1	1324	1289.8	1258.5
298.15 K	1423.5	1408	–	1382.6	1370.4	1350.8	1330.3	1309	1271.5	1238.6
303.15 K	1410.6	1396.1	–	1366.5	1354.3	–	–	1291.1	1253.1	1216.1
308.15 K	1398.2	–	1370.6	1351.7	1337.3	1315.3	–	–	1230.8	1193
313.15 K	–	1372.5	1357.5	1336.2	1320.4	1297.1	–	1250	–	1170

CCCC[n+]1ccn(C)c1.F[P-](F)(F)(F)(F)F + CCCN
x2 = 0
Settings	speed of sound [m/s]
293.15 K	1454.7
298.15 K	1442.4
303.15 K	1430.3
308.15 K	1418.5
313.15 K	1406.8
